The values that follow come from ChEMBL document CHEMBL1147353, “The Isolation of Majusculamide C from the Sponge Ptilocaulis trachys Collected in Enewetak and Determination of the Absolute Configuration of the 2-Methyl-3-aminopentanoic Acid Residue” (1993).

The subject of the assay is P388. In words: Cytotoxicity against mouse P388 cells. It is filed as functional. Conditions: read-out: ED50 (the source's name).

In brackets after ≈: the same amount, converted by molar mass. Numbered stars: 1 amine (or outer) side, 2 acyl side, 3 side chain; on linkers, the order of the positions; unused ones are H or OH. Square brackets hold non-standard residues; d marks the D form. Peptide text beside a SMILES is read from it. X1 = CC[C@H](C)[C@H](OC(=O)[C@@H](C)[C@@H](CC)N[*:1])C(=O)[*:2]; X2 = C[C@H](N[*:1])C(=O)C(C)(C)C(=O)[*:2]; NMeY = CN[C@@H](Cc1ccc(O)cc1)C(=O)O; NMeF = CN[C@@H](Cc1ccccc1)C(=O)O; NMeL = CN[C@@H](CC(C)C)C(=O)O; NMeV = CN[C@H](C(=O)O)C(C)C; NMeA = CN[C@@H](C)C(=O)O

As to `CC[C@H](C)[C@@H]1OC(=O)[C@@H](C)[C@@H](CC)NC(=O)[C@H](C)NC(=O)C(C)(C)C(=O)[C@H](C)NC(=O)[C@H](Cc2ccc(OC)cc2)N(C)C(=O)[C@H](C(C)C)N(C)C(=O)CNC(=O)[C@H](CC(C)C)N(C)C(=O)CNC1=O` [DOLASTATIN 11] (cyclo(A[X1]G[NMeL]G[NMeV][NMeY](Me)[X2])), the EC50 was 0.0027 µg/mL (≈ 0.00274 µM). The result for `CC[C@H](C)[C@@H]1OC(=O)[C@@H](C)[C@@H](CC)NC(=O)[C@H](C)N(C)C(=O)C(C)(C)C(=O)[C@H](C)NC(=O)[C@H](Cc2ccccc2)N(C)C(=O)[C@H](C(C)C)N(C)C(=O)CNC(=O)[C@H](CC(C)C)N(C)C(=O)CNC1=O` [DOLASTATIN 12] (cyclo(G[NMeL]G[NMeV][NMeF][X2][NMeA][X1])) reads 0.075 µg/mL (≈ 0.0774 µM).
